According to ChEMBL document CHEMBL1201862, “PubChem BioAssay data set” (2004):
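Method: 48-hour compound exposure of cells in 96-well plates, five concentrations, linear interpolation of endpoints. GI50 marks 50% less growth.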 Activity calls are given as the source filed them. Rule as the data show it: active = GI50 up to about 1.1 µM and inactive = higher.

Tests used:
Assay in all cases: NCI anticancer screen, dose series, 48 h
SNB-19 = test system: SNB-19
MOLT-4 = test system: MOLT-4
SNB-75 = test system: SNB-75
M14 = test system: M14
NCI-H23 = test system: NCI-H23
NCI-H226 = test system: NCI-H226
MDA-N = test system: MDA-N
SK-MEL-2 = test system: SK-MEL-2
CCRF-CEM = test system: CCRF-CEM
RXF 393 = test system: RXF 393
SF-295 = test system: SF-295
HCC 2998 = test system: HCC 2998
NCI-H460 = test system: NCI-H460
BT-549 = test system: BT-549
NCI-H522 = test system: NCI-H522
SK-MEL-28 = test system: SK-MEL-28
MCF7 = test system: MCF7
SF-268 = test system: SF-268
LOX IMVI = test system: LOX IMVI
SW-620 = test system: SW-620
SN12C = test system: SN12C
RPMI-8226 = test system: RPMI-8226
UACC-257 = test system: UACC-257
A549 = test system: A549
TK-10 = test system: TK-10
K562 = test system: K562
CAKI-1 = test system: CAKI-1
786-0 = test system: 786-0
UO-31 = test system: UO-31
OVCAR-3 = test system: OVCAR-3
HL-60 = test system: HL-60
DU-145 = test system: DU-145
HCT-15 = test system: HCT-15
HOP-92 = test system: HOP-92
SK-MEL-5 = test system: SK-MEL-5
KM12 = test system: KM12
PC-3 = test system: PC-3
HT-29 = test system: HT-29
HCT-116 = test system: HCT-116
SF-539 = test system: SF-539
COLO 205 = test system: COLO 205
U-251 = test system: U-251
MDA-MB-435 = test system: MDA-MB-435
T47D = test system: T47D
UACC-62 = test system: UACC-62
NCI/ADR-RES = test system: NCI/ADR-RES
SR = test system: SR
OVCAR-8 = test system: OVCAR-8
EKVX = test system: EKVX
Hs-578T = test system: Hs-578T
IGROV-1 = test system: IGROV-1
MDA-MB-231 = test system: MDA-MB-231
OVCAR-4 = test system: OVCAR-4
Malme-3M = test system: Malme-3M
HOP-62 = test system: HOP-62
SK-OV-3 = test system: SK-OV-3
ACHN = test system: ACHN
OVCAR-5 = test system: OVCAR-5
A498 = test system: A498

SMILES: O=C1CC2CCC(C1)[S+]2[O-] (stereo unspecified)
- GI50 (SNB-19): > 100 µM (inactive)
- GI50 (MOLT-4): > 100 µM (inactive)
- GI50 (SNB-75): > 100 µM (inactive)
- GI50 (M14): > 100 µM (inactive)
- GI50 (NCI-H23): > 100 µM (inactive)
- GI50 (NCI-H226): > 100 µM (inactive)
- GI50 (MDA-N): > 100 µM (inactive)
- GI50 (SK-MEL-2): > 100 µM (inactive)
- GI50 (CCRF-CEM): > 100 µM (inactive)
- GI50 (RXF 393): > 100 µM (inactive)
- GI50 (SF-295): 61.4 µM (inactive)
- GI50 (HCC 2998): > 100 µM (inactive)
- GI50 (NCI-H460): > 100 µM (inactive)
- GI50 (BT-549): > 100 µM (inactive)
- GI50 (NCI-H522): > 100 µM (inactive)
- GI50 (SK-MEL-28): > 100 µM (inactive)
- GI50 (MCF7): > 100 µM (inactive)
- GI50 (SF-268): > 100 µM (inactive)
- GI50 (LOX IMVI): > 100 µM (inactive)
- GI50 (SW-620): > 100 µM (inactive)
- GI50 (SN12C): > 100 µM (inactive)
- GI50 (RPMI-8226): > 100 µM (inactive)
- GI50 (UACC-257): > 100 µM (inactive)
- GI50 (A549): > 100 µM (inactive)
- GI50 (TK-10): > 100 µM (inactive)
- GI50 (K562): > 100 µM (inactive)
- GI50 (CAKI-1): > 100 µM (inactive)
- GI50 (786-0): > 100 µM (inactive)
- GI50 (UO-31): > 100 µM (inactive)
- GI50 (OVCAR-3): > 100 µM (inactive)
- GI50 (HL-60): > 100 µM (inactive)
- GI50 (DU-145): > 100 µM (inactive)
- GI50 (HCT-15): > 100 µM
- GI50 (HOP-92): > 100 µM (inactive)
- GI50 (SK-MEL-5): > 100 µM (inactive)
- GI50 (KM12): > 100 µM (inactive)
- GI50 (PC-3): > 100 µM (inactive)
- GI50 (HT-29): > 100 µM (inactive)
- GI50 (HCT-116): > 100 µM (inactive)
- GI50 (SF-539): > 100 µM (inactive)
- GI50 (COLO 205): > 100 µM (inactive)
- GI50 (U-251): > 100 µM (inactive)
- GI50 (MDA-MB-435): > 100 µM (inactive)
- GI50 (T47D): > 100 µM (inactive)
- GI50 (UACC-62): > 100 µM (inactive)
- GI50 (NCI/ADR-RES): > 100 µM (inactive)
- GI50 (SR): > 100 µM (inactive)
- GI50 (OVCAR-8): > 100 µM (inactive)
- GI50 (EKVX): > 100 µM (inactive)
- GI50 (Hs-578T): > 100 µM (inactive)
- GI50 (IGROV-1): > 100 µM (inactive)
- GI50 (MDA-MB-231): > 100 µM (inactive)
- GI50 (OVCAR-4): > 100 µM (inactive)
- GI50 (Malme-3M): > 100 µM (inactive)
- GI50 (HOP-62): > 100 µM (inactive)
- GI50 (SK-OV-3): > 100 µM (inactive)

SMILES: CC(c1ccccc1)n1cncc1C(=O)NN1CCN(C)CC1 (stereo unspecified)
- GI50 (SNB-19): > 10 µM (inactive)
- GI50 (MOLT-4): > 10 µM (inactive)
- GI50 (ACHN): > 10 µM (inactive)
- GI50 (M14): > 10 µM (inactive)
- GI50 (NCI-H23): > 10 µM (inactive)
- GI50 (OVCAR-5): > 10 µM (inactive)
- GI50 (NCI-H226): 3.81 µM (inactive)
- GI50 (MDA-N): > 10 µM (inactive)
- GI50 (SK-MEL-2): > 10 µM (inactive)
- GI50 (CCRF-CEM): > 10 µM (inactive)
- GI50 (RXF 393): > 10 µM (inactive)
- GI50 (SF-295): > 10 µM (inactive)
- GI50 (NCI-H460): > 10 µM (inactive)
- GI50 (BT-549): > 10 µM (inactive)
- GI50 (NCI-H522): > 10 µM (inactive)
- GI50 (SK-MEL-28): > 10 µM (inactive)
- GI50 (MCF7): > 10 µM (inactive)
- GI50 (SF-268): > 10 µM (inactive)
- GI50 (LOX IMVI): > 10 µM (inactive)
- GI50 (SW-620): > 10 µM (inactive)
- GI50 (SN12C): > 10 µM (inactive)
- GI50 (RPMI-8226): > 10 µM (inactive)
- GI50 (UACC-257): > 10 µM (inactive)
- GI50 (A549): > 10 µM (inactive)
- GI50 (TK-10): > 10 µM (inactive)
- GI50 (K562): > 10 µM (inactive)
- GI50 (CAKI-1): > 10 µM (inactive)
- GI50 (786-0): > 10 µM (inactive)
- GI50 (OVCAR-3): > 10 µM (inactive)
- GI50 (HL-60): > 10 µM (inactive)
- GI50 (DU-145): > 10 µM (inactive)
- GI50 (HCT-15): > 10 µM
- GI50 (SK-MEL-5): > 10 µM (inactive)
- GI50 (KM12): > 10 µM (inactive)
- GI50 (PC-3): > 10 µM (inactive)
- GI50 (HT-29): > 10 µM (inactive)
- GI50 (HCT-116): > 10 µM (inactive)
- GI50 (SF-539): > 10 µM (inactive)
- GI50 (COLO 205): > 10 µM (inactive)
- GI50 (U-251): > 10 µM (inactive)
- GI50 (MDA-MB-435): > 10 µM (inactive)
- GI50 (A498): > 10 µM (inactive)
- GI50 (T47D): > 10 µM (inactive)
- GI50 (UACC-62): > 10 µM (inactive)
- GI50 (NCI/ADR-RES): > 10 µM (inactive)
- GI50 (SR): > 10 µM (inactive)
- GI50 (OVCAR-8): > 10 µM (inactive)
- GI50 (EKVX): > 10 µM (inactive)
- GI50 (Hs-578T): > 10 µM (inactive)
- GI50 (IGROV-1): > 10 µM (inactive)
- GI50 (MDA-MB-231): > 10 µM (inactive)
- GI50 (OVCAR-4): > 10 µM (inactive)
- GI50 (Malme-3M): > 10 µM (inactive)
- GI50 (HOP-62): > 10 µM (inactive)
- GI50 (SK-OV-3): > 10 µM (inactive)
